Laboratory results taken from ChEMBL document CHEMBL3227961, “Antileukemic activity of substituted ureidothiazoles, ureidothiadiazoles, and related compounds” (J Med Chem, 1979).
Active and inactive are the calls of the source. No cut-off for these calls is given here.

Key:
[1] = tested on: P388; experiment: Antitumor activity against mouse P388 cells allografted in BDF1 mouse assessed as tumor growth inhibition at 100 mg/kg administered as qd for 1 to 9 days relative to control; type: functional
[2] = tested on: P388; experiment: Antitumor activity against mouse P388 cells allografted in BDF1 mouse assessed as tumor growth inhibition at 200 mg/kg administered as qd for 1 to 9 days relative to control; type: functional
[3] = tested on: P388; experiment: Antitumor activity against mouse P388 cells allografted in BDF1 mouse assessed as tumor growth inhibition at 50 mg/kg administered as qd for 1 to 9 days relative to control; type: functional
[4] = tested on: P388; experiment: Antitumor activity against mouse P388 cells allografted in BDF1 mouse assessed as survival at 200 mg/kg administered as qd for 1 to 9 days; type: functional, organism-based; design: dose 200 mg/kg
[5] = tested on: P388; experiment: Antitumor activity against mouse P388 cells allografted in BDF1 mouse assessed as survival at 50 mg/kg administered as qd for 1 to 9 days; type: functional, organism-based; design: dose 50 mg/kg
[6] = tested on: P388; experiment: Antitumor activity against mouse P388 cells allografted in BDF1 mouse assessed as survival at 100 mg/kg administered as qd for 1 to 9 days; type: functional, organism-based; design: dose 100 mg/kg
[7] = tested on: P388; experiment: Antitumor activity against mouse P388 cells allografted in BDF1 mouse assessed as survival at 25 mg/kg administered as qd for 1 to 9 days; type: functional, organism-based; design: dose 25 mg/kg
[8] = tested on: P388; experiment: Antitumor activity against mouse P388 cells allografted in BDF1 mouse assessed as tumor growth inhibition at 25 mg/kg administered as qd for 1 to 9 days relative to control; type: functional
[9] = tested on: P388; experiment: Antitumor activity against mouse P388 cells allografted in BDF1 mouse assessed as tumor growth inhibition at 400 mg/kg administered as qd for 1 to 9 days relative to control; type: functional
[10] = tested on: P388; experiment: Antitumor activity against mouse P388 cells allografted in BDF1 mouse assessed as survival at 400 mg/kg administered as qd for 1 to 9 days; type: functional, organism-based; design: dose 400 mg/kg
[11] = tested on: P388; experiment: Antitumor activity against mouse P388 cells allografted in BDF1 mouse assessed as tumor growth inhibition at 12.5 mg/kg administered as qd for 1 to 9 days relative to control; type: functional
[12] = tested on: P388; experiment: Antitumor activity against mouse P388 cells allografted in BDF1 mouse assessed as survival at 12.5 mg/kg administered as qd for 1 to 9 days; type: functional, organism-based; design: dose 12.5 mg/kg
[13] = tested on: Mus musculus; experiment: Toxicity in mouse B16 cells allografted in BDF1 mouse at 6.25 to 50 mg/kg administered as qd for 1 to 9 days; type: organism-based
[14] = tested on: B16; experiment: Antitumor activity against mouse B16 cells allografted in BDF1 mouse assessed as tumor growth inhibition at 6.25 to 50 mg/kg administered as qd for 1 to 9 days relative to control; type: functional, organism-based
[15] = tested on: B16; experiment: Antitumor activity against mouse B16 cells allografted in BDF1 mouse assessed as tumor growth inhibition at 100 mg/kg administered as qd for 1 to 9 days relative to control; type: functional
[16] = tested on: B16; experiment: Antitumor activity against mouse B16 cells allografted in BDF1 mouse assessed as tumor growth inhibition at 400 mg/kg administered as qd for 1 to 9 days relative to control; type: functional
[17] = tested on: L1210; experiment: Antitumor activity against mouse L1210 cells allografted in BDF1 mouse assessed as tumor growth inhibition at 200 mg/kg administered as qd for 1 to 9 days relative to control; type: functional
[18] = tested on: B16; experiment: Antitumor activity against mouse B16 cells allografted in BDF1 mouse assessed as tumor growth inhibition at 200 mg/kg administered as qd for 1 to 9 days relative to control; type: functional
[19] = tested on: Lewis lung carcinoma cell line; experiment: Antitumor activity against mouse LLC cells allografted in BDF1 mouse assessed as tumor growth inhibition; type: functional
[20] = tested on: B16; experiment: Antitumor activity against mouse B16 cells allografted in BDF1 mouse assessed as tumor growth inhibition at 50 mg/kg administered as qd for 1 to 9 days relative to control; type: functional
[21] = tested on: B16; experiment: Antitumor activity against mouse B16 cells allografted in BDF1 mouse assessed as tumor growth inhibition at 25 mg/kg administered as qd for 1 to 9 days relative to control; type: functional

| Compound | T/C [1] | T/C [2] | T/C [3] | Activity [4] | Activity [5] | Activity [6] | T/C [8] | also measured |
| --- | --- | --- | --- | --- | --- | --- | --- | --- |
| CNC(=O)Nc1nccs1 | 96% | 97% | 105% | Active | Active | – | – | – |
| O=C(CCl)Nc1nncs1 | 104% | 100% | – | Active | – | Active | – | – |
| N#Cc1ccc(NC(=O)Nc2nncs2)cc1 | 140% | 146% | 131% | – | Active | Active | 122% | Activity [7]: Active |
| O=C(Nc1ccccc1)Nc1nccs1 | 96% | 93% | – | Active | – | Active | – | – |
| CCOC(=O)c1ccc(NC(=S)Nc2nccs2)cc1 | 95% | 92% | – | – | – | Active | – | T/C [9]: 92% |
| CCOC(=O)c1ccc(NC(=O)Nc2nc3ccccc3s2)cc1 | – | 90% | – | Active | – | – | – | Activity [10]: Active; T/C [9]: 90% |
| O=C(Nc1ccc(C(=O)O)cc1)Nc1nccs1 | 150% | 163% | 143% | Active | Active | Active | 125% | Activity [7]: Active |
| O=C(CCl)Nc1nccs1 | 116% | – | 103% | – | Active | Active | – | – |
| CCOC(=O)c1ccc(NC(=O)Nc2scc[n+]2C)cc1.COS(=O)(=O)[O-] | 100% | 90% | – | – | – | Active | – | – |
| Cc1ccc(NC(=O)Nc2nccs2)cc1 | 99% | 105% | – | Active | – | Active | – | – |
| CCOC(=O)c1ccc(NC(=O)Nc2nnc(NC(=O)Nc3ccc(C(=O)OCC)cc3)[nH]2)cc1 | 88% | – | 89% | – | Active | Active | – | – |
| CCOC(=O)Nc1nncs1 | 142% | 151% | 132% | Active | Active | Active | 108% | Activity [7]: Active |
| CCOC(=O)c1ccc(NC(=O)NC2=NCCS2)cc1 | – | 87% | – | Active | – | – | – | Activity [10]: Active; T/C [9]: 92% |
| CCOC(=O)c1ccc(NC(=O)Nc2nncs2)cc1 | 134% | – | 138% | – | Active | Active | 132% | T/C [11]: 119%; Activity [12]: Active; Activity [13]: Non-toxic; Activity [7]: Active; TGI [14]: inactive |
| CCOC(=O)c1ccc(NC(=O)Nc2nc(C)cs2)cc1 | 127% | 138% | 109% | Active | Active | Active | – | – |
| O=C(Nc1ccc([N+](=O)[O-])cc1)Nc1nncs1 | 124% | 132% | – | – | – | Active | – | T/C [9]: 142% |
| CCOC(=O)Nc1nccs1 | 102% | 108% | – | Active | – | Active | – | – |
| Cc1ccc(S(=O)(=O)NC(=O)Nc2nccs2)cc1 | 106% | 99% | – | Active | – | Active | – | – |
| O=C(Nc1nccs1)C(F)(F)F | 104% | 99% | – | – | – | Active | – | Activity [10]: Active; T/C [9]: 108% |
| O=C(Nc1ccc([N+](=O)[O-])cc1)Nc1nccs1 | – | – | 142% | – | Active | – | 127% | T/C [11]: 112%; Activity [12]: Active; Activity [7]: Active |
| CCOC(=O)c1ccc(NC(=O)Nc2nnn[nH]2)cc1 | – | 100% | – | Active | – | – | – | Activity [10]: Active; T/C [9]: 108% |
| CCOC(=O)c1ccc(NC(=O)Nc2nccs2)cc1 | 143% | 162% | 149% | – | Active | Active | 145% | T/C [15]: 166%; T/C [16]: 153%; T/C [17]: 125%; T/C [18]: 167%; TGI [19]: inactive; T/C [20]: 147%; Activity [7]: Active; T/C [21]: 134% |
| N#Cc1ccc(NC(=O)Nc2nccs2)cc1 | 160% | – | 132% | – | Active | – | 124% | Activity [7]: Active |
| CCOC(=O)c1ccc(NC(=O)Nc2nc3ccc(OC)cc3s2)cc1 | – | 89% | – | Active | – | – | – | Activity [10]: Active; T/C [9]: 89% |
| O=C(Nc1ccc(Cl)cc1)Nc1nccs1 | 118% | – | 111% | – | Active | Active | – | – |
| O=C(Nc1ccccc1)Nc1nncs1 | – | – | – | – | – | – | 104% | T/C [11]: 104%; Activity [12]: Active; Activity [7]: Active |
| O=C(Nc1nncs1)C(F)(F)F | – | – | 161% | – | Active | – | 130% | T/C [11]: 110%; Activity [12]: Active |
